Experimental data as given in article PMC6812191 (Heliyon, 2019).

Assays:
Type in all cases: cell-based
hERG potassium channel [1] = target: hERG potassium channel (Homo sapiens, UniProt Q12809); test: whole-cell patch clamp, tail current inhibition
hERG potassium channel [2] = target: hERG potassium channel (Homo sapiens, UniProt Q12809, T623A); test: whole-cell patch clamp, inhibition at […]
hERG potassium channel [3] = target: hERG potassium channel (Homo sapiens, UniProt Q12809, S624A); test: whole-cell patch clamp, concentration response
hERG potassium channel [4] = target: hERG potassium channel (Homo sapiens, UniProt Q12809, F656A); test: whole-cell patch clamp, inhibition at […]
hERG potassium channel [5] = target: hERG potassium channel (Homo sapiens, UniProt Q12809, V625A); test: whole-cell patch clamp, inhibition at […]
hERG potassium channel [6] = target: hERG potassium channel (Homo sapiens, UniProt Q12809, Y652A); test: whole-cell patch clamp, inhibition at […]
Sequence of hERG potassium channel (Homo sapiens, UniProt Q12809, Y652A) (Q12809 whole entry Y652A): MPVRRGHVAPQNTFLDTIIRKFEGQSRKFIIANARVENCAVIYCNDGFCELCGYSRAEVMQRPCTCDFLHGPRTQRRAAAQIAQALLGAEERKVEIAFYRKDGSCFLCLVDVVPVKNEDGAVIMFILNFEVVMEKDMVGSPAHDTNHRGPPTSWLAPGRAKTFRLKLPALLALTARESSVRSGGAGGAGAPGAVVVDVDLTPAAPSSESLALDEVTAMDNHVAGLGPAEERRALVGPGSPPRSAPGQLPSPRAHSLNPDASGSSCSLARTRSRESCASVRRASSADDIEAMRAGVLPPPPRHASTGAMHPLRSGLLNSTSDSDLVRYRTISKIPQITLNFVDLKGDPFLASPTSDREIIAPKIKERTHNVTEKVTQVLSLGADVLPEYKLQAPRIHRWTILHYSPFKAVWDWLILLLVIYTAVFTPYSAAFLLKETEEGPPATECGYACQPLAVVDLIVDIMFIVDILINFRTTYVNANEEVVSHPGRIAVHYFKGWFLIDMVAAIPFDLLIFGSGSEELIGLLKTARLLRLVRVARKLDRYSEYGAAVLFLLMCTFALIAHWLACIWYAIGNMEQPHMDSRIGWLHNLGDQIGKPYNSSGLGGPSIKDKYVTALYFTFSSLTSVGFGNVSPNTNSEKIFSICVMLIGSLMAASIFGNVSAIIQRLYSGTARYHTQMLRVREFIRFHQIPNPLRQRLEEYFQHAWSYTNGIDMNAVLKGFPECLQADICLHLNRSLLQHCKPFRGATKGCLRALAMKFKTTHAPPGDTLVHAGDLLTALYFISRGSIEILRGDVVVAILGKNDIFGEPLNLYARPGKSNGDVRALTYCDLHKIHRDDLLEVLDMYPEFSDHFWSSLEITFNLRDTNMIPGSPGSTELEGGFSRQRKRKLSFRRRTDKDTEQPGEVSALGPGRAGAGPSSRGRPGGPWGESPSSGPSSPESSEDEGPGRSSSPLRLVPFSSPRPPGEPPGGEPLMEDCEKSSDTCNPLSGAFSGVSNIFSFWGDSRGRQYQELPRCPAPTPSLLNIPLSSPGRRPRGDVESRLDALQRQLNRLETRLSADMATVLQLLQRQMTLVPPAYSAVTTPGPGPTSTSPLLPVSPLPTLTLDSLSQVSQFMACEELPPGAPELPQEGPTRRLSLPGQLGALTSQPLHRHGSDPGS

Sequence of hERG potassium channel (Homo sapiens, UniProt Q12809, F656A) (Q12809 whole entry F656A): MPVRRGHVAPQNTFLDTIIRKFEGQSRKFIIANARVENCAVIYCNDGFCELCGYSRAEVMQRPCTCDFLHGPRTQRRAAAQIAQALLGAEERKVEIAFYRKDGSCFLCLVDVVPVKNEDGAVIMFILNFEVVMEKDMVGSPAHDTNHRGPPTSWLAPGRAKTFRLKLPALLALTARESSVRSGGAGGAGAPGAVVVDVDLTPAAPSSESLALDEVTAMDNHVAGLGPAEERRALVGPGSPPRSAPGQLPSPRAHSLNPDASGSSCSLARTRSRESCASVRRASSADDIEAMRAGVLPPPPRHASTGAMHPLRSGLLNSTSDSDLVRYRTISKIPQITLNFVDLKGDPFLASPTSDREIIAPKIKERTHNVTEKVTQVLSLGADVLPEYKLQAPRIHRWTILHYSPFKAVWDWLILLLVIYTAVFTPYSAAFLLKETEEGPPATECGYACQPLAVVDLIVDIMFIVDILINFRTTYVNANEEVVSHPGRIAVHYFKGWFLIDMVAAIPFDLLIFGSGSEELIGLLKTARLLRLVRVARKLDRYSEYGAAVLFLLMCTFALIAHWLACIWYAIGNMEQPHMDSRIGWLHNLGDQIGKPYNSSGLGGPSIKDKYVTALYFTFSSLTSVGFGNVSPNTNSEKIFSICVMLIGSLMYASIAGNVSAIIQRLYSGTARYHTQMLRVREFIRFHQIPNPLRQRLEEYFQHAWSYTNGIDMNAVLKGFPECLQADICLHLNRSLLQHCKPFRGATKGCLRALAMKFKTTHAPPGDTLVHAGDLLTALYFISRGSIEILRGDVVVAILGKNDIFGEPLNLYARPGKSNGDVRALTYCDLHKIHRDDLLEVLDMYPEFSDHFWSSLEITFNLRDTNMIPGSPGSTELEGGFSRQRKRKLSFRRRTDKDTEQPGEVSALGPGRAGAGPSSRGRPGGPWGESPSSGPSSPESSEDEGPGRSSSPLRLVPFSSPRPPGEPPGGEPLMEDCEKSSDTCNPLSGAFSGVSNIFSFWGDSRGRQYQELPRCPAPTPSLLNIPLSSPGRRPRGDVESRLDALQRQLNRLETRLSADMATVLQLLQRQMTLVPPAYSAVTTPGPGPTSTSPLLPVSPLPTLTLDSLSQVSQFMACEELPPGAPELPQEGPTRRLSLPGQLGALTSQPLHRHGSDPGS
Sequence of hERG potassium channel (Homo sapiens, UniProt Q12809, S624A) (Q12809 whole entry S624A): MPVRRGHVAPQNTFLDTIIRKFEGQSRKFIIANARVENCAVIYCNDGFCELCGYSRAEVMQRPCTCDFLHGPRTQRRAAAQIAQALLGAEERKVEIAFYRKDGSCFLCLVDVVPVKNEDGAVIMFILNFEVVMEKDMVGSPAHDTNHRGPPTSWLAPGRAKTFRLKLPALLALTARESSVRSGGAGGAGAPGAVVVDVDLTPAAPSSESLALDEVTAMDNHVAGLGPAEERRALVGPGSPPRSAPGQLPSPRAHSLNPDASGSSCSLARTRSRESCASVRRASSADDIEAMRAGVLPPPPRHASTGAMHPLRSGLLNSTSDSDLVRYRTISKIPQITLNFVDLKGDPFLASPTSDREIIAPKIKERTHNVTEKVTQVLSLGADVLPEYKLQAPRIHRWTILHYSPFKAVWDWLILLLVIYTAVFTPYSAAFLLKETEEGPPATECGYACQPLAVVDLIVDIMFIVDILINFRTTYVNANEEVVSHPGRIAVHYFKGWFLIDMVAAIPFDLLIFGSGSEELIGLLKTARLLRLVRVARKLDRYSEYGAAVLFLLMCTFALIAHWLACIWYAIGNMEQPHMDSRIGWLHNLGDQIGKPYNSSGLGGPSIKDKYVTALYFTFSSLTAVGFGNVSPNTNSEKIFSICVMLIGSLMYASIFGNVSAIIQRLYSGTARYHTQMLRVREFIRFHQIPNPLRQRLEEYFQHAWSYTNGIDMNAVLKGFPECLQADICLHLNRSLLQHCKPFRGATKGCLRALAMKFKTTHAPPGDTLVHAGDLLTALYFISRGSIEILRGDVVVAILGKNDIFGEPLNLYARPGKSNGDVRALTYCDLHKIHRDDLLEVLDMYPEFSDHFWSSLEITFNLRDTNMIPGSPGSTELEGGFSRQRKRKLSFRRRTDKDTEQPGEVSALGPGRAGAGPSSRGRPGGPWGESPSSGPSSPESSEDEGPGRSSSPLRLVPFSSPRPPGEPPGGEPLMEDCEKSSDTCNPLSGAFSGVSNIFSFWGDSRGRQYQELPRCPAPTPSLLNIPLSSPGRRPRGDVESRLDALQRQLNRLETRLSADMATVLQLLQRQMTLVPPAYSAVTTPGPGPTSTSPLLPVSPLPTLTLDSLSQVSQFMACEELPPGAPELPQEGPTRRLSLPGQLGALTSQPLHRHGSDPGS
Sequence of hERG potassium channel (Homo sapiens, UniProt Q12809) (Q12809 whole entry): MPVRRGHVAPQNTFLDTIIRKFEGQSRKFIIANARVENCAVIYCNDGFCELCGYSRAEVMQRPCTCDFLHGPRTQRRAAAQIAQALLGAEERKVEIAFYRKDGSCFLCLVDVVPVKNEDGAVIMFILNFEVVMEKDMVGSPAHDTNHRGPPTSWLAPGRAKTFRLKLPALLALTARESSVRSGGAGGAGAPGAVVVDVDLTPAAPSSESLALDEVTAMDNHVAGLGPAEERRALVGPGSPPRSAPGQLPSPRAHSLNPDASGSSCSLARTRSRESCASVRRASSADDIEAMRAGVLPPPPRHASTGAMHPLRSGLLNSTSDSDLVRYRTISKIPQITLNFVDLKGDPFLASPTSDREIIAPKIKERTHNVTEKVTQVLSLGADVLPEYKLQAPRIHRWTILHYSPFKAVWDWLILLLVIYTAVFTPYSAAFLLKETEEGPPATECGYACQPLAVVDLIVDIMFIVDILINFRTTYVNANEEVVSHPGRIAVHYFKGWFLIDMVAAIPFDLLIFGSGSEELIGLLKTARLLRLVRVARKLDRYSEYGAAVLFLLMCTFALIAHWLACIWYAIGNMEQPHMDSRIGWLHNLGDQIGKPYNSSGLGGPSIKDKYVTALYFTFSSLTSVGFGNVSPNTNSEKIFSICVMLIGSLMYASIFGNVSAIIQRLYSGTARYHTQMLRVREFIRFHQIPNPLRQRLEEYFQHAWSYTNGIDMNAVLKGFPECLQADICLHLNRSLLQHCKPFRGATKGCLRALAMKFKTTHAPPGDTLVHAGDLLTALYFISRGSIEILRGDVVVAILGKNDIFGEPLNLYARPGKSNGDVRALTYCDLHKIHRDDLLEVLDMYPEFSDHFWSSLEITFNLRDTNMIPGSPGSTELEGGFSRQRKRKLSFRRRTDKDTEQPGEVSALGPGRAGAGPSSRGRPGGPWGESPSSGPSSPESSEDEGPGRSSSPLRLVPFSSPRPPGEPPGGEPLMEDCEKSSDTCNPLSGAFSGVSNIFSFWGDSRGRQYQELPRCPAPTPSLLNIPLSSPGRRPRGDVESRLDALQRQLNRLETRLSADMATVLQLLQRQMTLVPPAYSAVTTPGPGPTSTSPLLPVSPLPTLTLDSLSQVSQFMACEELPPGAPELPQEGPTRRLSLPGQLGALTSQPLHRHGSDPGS

`CC1=C(O)C(=O)C=C2C1=CC=C1[C@@]2(C)CC[C@@]2(C)[C@@H]3C[C@](C)(C(=O)O)CC[C@]3(C)CC[C@]12C` [Celastrol] showed an IC50 (hERG potassium channel [1]) of 830 nM, an inhibition at 1 µM (hERG potassium channel [2]) of 36.2 ± 0.4% and an IC50 (hERG potassium channel [3]) of 4000 ± 300 nM. For the same molecule, the inhibition at 1 µM (hERG potassium channel [4]) was 34.5 ± 1.5%, the inhibition at 1 µM (hERG potassium channel [5]) was 51.6 ± 4.3% and the inhibition at 1 µM (hERG potassium channel [6]) was 56.3 ± 1.6%.
